Broadly, the IC50 is the midpoint of a concentration-inhibition curve. A higher IC50 goes with weaker potency in that assay.

Test [1] concerns the target T1, Prolyl Oligopeptidase (POP) (Homo sapiens, UniProt P48147).
T1 construct: gene PREP; recombinant human POP (rhPOP), GST moiety removed
T1 sequence (P48147 1-710): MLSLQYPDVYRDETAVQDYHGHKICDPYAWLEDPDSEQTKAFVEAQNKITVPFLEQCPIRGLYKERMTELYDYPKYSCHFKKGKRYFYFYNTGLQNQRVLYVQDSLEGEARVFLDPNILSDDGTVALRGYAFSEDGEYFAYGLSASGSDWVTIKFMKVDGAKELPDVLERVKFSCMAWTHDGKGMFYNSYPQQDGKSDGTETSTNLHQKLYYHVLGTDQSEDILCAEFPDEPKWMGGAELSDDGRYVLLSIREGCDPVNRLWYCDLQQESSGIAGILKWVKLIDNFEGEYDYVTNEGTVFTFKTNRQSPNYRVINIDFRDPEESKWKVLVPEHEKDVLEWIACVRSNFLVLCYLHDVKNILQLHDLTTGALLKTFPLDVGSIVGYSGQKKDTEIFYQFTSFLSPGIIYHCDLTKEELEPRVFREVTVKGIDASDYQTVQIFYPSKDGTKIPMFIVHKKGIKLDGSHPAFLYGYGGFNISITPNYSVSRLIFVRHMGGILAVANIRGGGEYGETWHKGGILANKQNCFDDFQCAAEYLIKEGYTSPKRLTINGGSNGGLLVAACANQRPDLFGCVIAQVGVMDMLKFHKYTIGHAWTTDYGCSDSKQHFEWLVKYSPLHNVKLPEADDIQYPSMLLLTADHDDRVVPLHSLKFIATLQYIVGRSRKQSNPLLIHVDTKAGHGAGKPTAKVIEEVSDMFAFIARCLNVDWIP
Briefly: RP-HPLC cleavage assay with purified rhPOP (TRH as substrate); Km/Vmax and Dixon plots. It is filed as biochemical.

In test [2] the target is T1, Prolyl Oligopeptidase (POP). Briefly: RP-HPLC cleavage assay with purified rhPOP (TRH as substrate); Dixon plots. The test is classed as biochemical.

As to `CCOC(=O)CN1C(=O)NC(CC)(c2ccccc2)C1=O` (centres unmarked) [T5450157], it took 130 µM to reach half-maximal inhibition in test [1] (IC50).
`O=C(CCC(=O)N1CCCC1)c1ccccc1` [T6816369] registered an IC50 in test [2] of 32.1 µM.

These data come from article PMC7112232, “Computational design of substrate selective inhibition” (PLoS Computational Biology, 2020).
